The term IC50 denotes the concentration needed to halve the response being measured. Read a high IC50 as lower potency.

The text below walks through data of ChEMBL document CHEMBL5260851, “Iodinated Choline Transport-Targeted Tracers” (J Med Chem, 2020).

A value given as a limit tells only on which side of the number the result lay.

Data set [1] in a line: Displacement of [3H]-choline from choline transporter in human PC-3 cells preincubated with [3H]-choline for 15 mins followed by compound addition and measured after 60 mins. Format: cell-based. Background: In a radioligand displacement assay an active substance lowers the binding of a labelled ligand.
Data set [2] in a line: Cytotoxicity against human MRC5 cells. Format: toxicity, cell-based.
Data set [3] can be described thus: Cytotoxicity against human BJ cells. Format: toxicity, cell-based.

With `C[N+]1(C)CCOC(O)(c2ccc(-c3ccc(C4(O)C[N+](C)(C)CCO4)cc3)cc2)C1` (stereo not given), the IC50 in data set [1] came out at 36 µM.
With `C[N+]1(Cc2ccccc2I)CCCC(O)C1` (stereo not given), the values for the IC50 in data set [2], in data set [1] and in data set [3] were greater than 50 µM, 197 µM and greater than 50 µM, respectively.
As for `COc1c(I)cc(CC[N+](C)(C)CCO)cc1I`, the IC50 in data set [2] was greater than 50 µM; in data set [1], 53 µM; in data set [3], greater than 50 µM.
Consider `Cc1ccc(OCCCC[N+](C)(C)CCO)c(I)n1`, for which the IC50 was greater than 50 µM in data set [2], 18 µM in data set [1] and greater than 50 µM in data set [3].
Regarding `COc1ccc(CC[N+](C)(C)CCO)cc1I`, the IC50 in data set [2] was greater than 50 µM; in data set [1], 24 µM; in data set [3], greater than 50 µM.
`OC1C[N+]2(Cc3ccccc3I)CCC1CC2` (stereo not given): the half-maximal inhibitory concentration (IC50) in data set [2] was greater than 50 µM; in data set [1] it was 160 µM; in data set [3], greater than 50 µM.
Regarding `COc1ccc(CCC[N+](C)(C)CCO)cc1I`, the IC50 in data set [2] was greater than 50 µM; in data set [1], 34 µM; in data set [3] it was greater than 50 µM.
Turning to `OCCN1CC[N+](CCO)(Cc2ccccc2I)CC1`, the concentration for half-maximal inhibition (IC50) in data set [2] is greater than 50 µM; in data set [1], 908 µM; in data set [3], greater than 50 µM.
For `COc1ccc(CC[N+]23CCC(CC2)C(O)C3)cc1I` (stereo not given), the figures for the IC50 in data set [2], in data set [1] and in data set [3] were greater than 50 µM, 115 µM and greater than 50 µM, respectively.
`C[N+](C)(CCO)CCOc1ccccc1I`: the IC50 is greater than 50 µM in data set [2], 25 µM in data set [1] and greater than 50 µM in data set [3].
Regarding `C[N+]1(CCc2ccc(I)cc2)CCCC(O)C1` (stereo not given), the IC50 was greater than 50 µM in data set [2], 106 µM in data set [1] and greater than 50 µM in data set [3].
With `OCC[N+]1(CCOc2cccc(I)c2)CCCC1`, the IC50 in data set [2] was greater than 50 µM; in data set [1] it was 15 µM; in data set [3] it was greater than 50 µM.
As for `C[N+](C)(CCO)CCOc1ccc(I)cc1`, the half-inhibitory concentration (IC50) is greater than 50 µM in data set [2], 23 µM in data set [1] and greater than 50 µM in data set [3].
Consider `OCC[N+]1(Cc2ccccc2I)CCOCC1`, for which the IC50 in data set [2] is greater than 50 µM; in data set [1] it was 43 µM; in data set [3] it was greater than 50 µM.
In the case of `C[N+](C)(CCCCO)CCc1ccc(I)s1`, the IC50 in data set [2] was greater than 50 µM; in data set [1], 30 µM; in data set [3], greater than 50 µM.
As to `C[N+](C)(CCO)CCc1ccc(I)cc1`, the IC50 is greater than 50 µM in data set [2], 8.6 µM in data set [1] and greater than 50 µM in data set [3].
For the compound `C[N+](C)(CCCO)CCc1ccc(I)s1`, the figures for the IC50 in data set [2], in data set [1] and in data set [3] were greater than 50 µM, 1.1 µM and greater than 50 µM, respectively.
Regarding `OCC[N+]1(CCOc2ccc(I)cc2)CCCC1`, the IC50 in data set [2] is greater than 50 µM; in data set [1], 18 µM; in data set [3], greater than 50 µM.
On to `C[N+](C)(CCO)Cc1ccccc1I`, for which the IC50 in data set [2] was greater than 50 µM; in data set [1] it was 216 µM; in data set [3] it was greater than 50 µM.
Regarding `OC1C[N+]2(CCc3ccc(I)cc3)CCC1CC2` (stereo not given), the values for the IC50 in data set [2], in data set [1] and in data set [3] were greater than 50 µM, 75 µM and greater than 50 µM, respectively.
As to `OCC[N+]1(CCCCC#CI)CCCC1`, the IC50 was greater than 50 µM in data set [2], 18 µM in data set [1] and greater than 50 µM in data set [3].
Take `C[N+](C)(CCO)CCCCC#CI`: the IC50 in data set [2] was greater than 50 µM; in data set [1], 36 µM; in data set [3], greater than 50 µM.
Consider `OCC[N+]1(Cc2ccc(I)cc2)CCOCC1`, for which the IC50 is greater than 50 µM in data set [2], 273 µM in data set [1] and greater than 50 µM in data set [3].
`OCC[N+]1(Cc2ccccc2I)CCCCC1`: the IC50 in data set [2] is greater than 50 µM; in data set [1] it was 217 µM; in data set [3], greater than 50 µM.
For `C[N+](C)(CF)CCO`, in data set [1], the IC50 was determined as 20 µM.
Consider `C[N+](C)(CCO)CCOc1cccc(I)c1`, for which the IC50 in data set [2] is greater than 50 µM; in data set [1] it was 22 µM; in data set [3] it was greater than 50 µM.
`C[N+](C)(C)CCO` [CHOLINE]: the IC50 in data set [1] turned out to be 4.7 µM.
